The record followed here is patent publication US9060971B2, “Combination pharmaceutical agents as inhibitors of HCV replication” (Enanta Pharmaceuticals, Inc., priority 2010, dated 2015).

For assay [1], the system named is HCV 1b genotype replicon. Nature of the assay: HCV replicon drug screening assay (quantitative RT-PCR or luciferase), genotype 1b. The assay is classed as cell-based. Conditions: Hepatitis C virus; HCV 1b genotype replicon; quantitative RT-PCR or luciferase assay; read-out: Genotype-1b replicon EC50 Range. The method, boiled down:
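Huh-derived subgenomic genotype 1b replicon lines (SGR 11-7, neo; Huh-luc/neo-ET, firefly luciferase with adaptive mutations) grown at 37 °C. EC50 from HCV RNA by TaqMan one-step qRT-PCR normalised to GAPDH RNA. Cytotoxicity measured in parallel by MTS.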
(A replicon is a self-replicating genome or part of one, used to study replication in cells.)

Assay [2] has as its system "Huh-luc/neo-ET" HCV replicon. As to the kind of experiment: In vitro synergy assay, two drug combinations, luciferase, Bliss additivity. Conditions: 72 h. The assay is classed as cell-based. From the text:
The coding sequence of the published HCV replicon was synthesized and subsequently assembled in a modified plasmid pBR322 (Promega, Madison, Wis.) using standard molecular biology techniques. One replicon cell line (“SGR 11-7”) stably expresses HCV replicon RNA which consists of (i) the HCV 5′UTR fused to the first 12 amino acids of the capsid protein, (ii) the neomycin phosphotransferase gene (neo), (iii) the IRES from encephalomyocarditis virus (EMCV), and (iv) HCV NS2 to NS5B genes and the HCV 3′UTR. Another replicon cell line (“Huh-luc/neo-ET”) described by Vrolijk et. al. (Vrolijk et. al. (2003) Journal of Virological Methods 110:201-209, expressly incorporated by reference in its entirety) stably expresses HCV replicon RNA which consists of (i) the HCV 5′UTR fused to the first 12 amino acids of the capsid protein, (ii) the firefly luciferase reporter gene, (iii) the ubiquitin gene, (iv) the neomycin phosphotransferase gene (neo), (v) the IRES from encephalomyocarditis virus (EMCV), and (vi) HCV NS3 to NS5B genes that harbor cell culture adaptive mutations (E1202G, T12801, K1846T) and the HCV 3′UTR.
Since clinical drug resistance often develops in viral infections following single agent therapies, there is a need to assess the additive, antagonistic, or synergistic properties of combination therapies. We used the HCV replicon system to assess the potential use of our NS5A inhibitors in combination therapies with Interferon alpha, cyclosporine analogs and inhibitors targeting other HCV proteins. The acute effects of combinations of drugs were studied in the “Huh-luc/neo-ET” replicon with each chemical agent titrated in an X or Y direction in a 6 point two-fold dilution curve centered around the EC50 of each drug. Briefly, replicon cells were seeded at 7,000 cells per well in 90 ul DMEM (without phenol red, Invitrogen Cat. #31053-036) per well with 10% FCS, 1% non-essential amino acids, 1% of Glutamax and 1% of 100× penicillin/streptomycin and incubated overnight at 37° C., 5% C02, 100% relative humidity. 16-20 h after seeding cells, test compounds previously solubilized and titrated in dimethyl sulfoxide (“DMSO”) from each X plate and Y plate were diluted 1:100 in DMEM (without phenol red, Invitrogen Cat. #31053-036) with 10% FCS, 1% non-essential amino acids, 1% of Glutamax and 1% of 100× penicillin/streptomycin and added directly to the 96-well plate containing cells and growth medium at a 1:10 dilution for a final dilution of compound and DMSO of 1:1000 ([…] final concentration). Drug treated cells were incubated at 37° C., 5% C02, 100% relative humidity for 72 hours before performing a luciferase assay using 100 ul per well BriteLite Plus (Perkin Elmer) according to the manufacturer's instructions. Data analysis utilizes the method published by Prichard and Shipman (Antiviral Research, 1990. 14:181-205). Using this method, the combination data were analyzed for antagonistic, additive, or synergistic combination effects across the entire combination surface created by the diluted compounds in combination.
We used the HCV replicon system to assess the potential use of our NS5A inhibitor in combination therapies with Interferon alpha, cyclosporine analogs or inhibitors targeting other HCV proteins. Several HCV antivirals, including protease inhibitors (ITMN-191, SCH503034, VX-950), a nucleoside analog (such as those described in WO01/90121(A2), U.S. Pat. No. 6,348,587B1, WO01/60315 or WO01/32153), a nonnucleoside NS5B polymerase inhibitor (GSK625433), a cyclosporine analog, as well as Interferon alpha, are tested in combination with Compounds 90, 93 or 95 herein, inhibitors of HCV NS5A. Antivirals were tested at five concentrations each, diluted in DMSO by 2-fold dilutions. The antivirals were tested as monotherapies and in combination with Compounds 90, 93 or 95 (described herein) at various concentration ratios. […]

[3] abbreviates: in combination with Boceprevir (SCH503034).
Setting [4] is: in combination with Cyclosporine analog.
Where [5] appears, read: in combination with Interferon-alpha.
Setting [6] is: in combination with Telaprevir (VX-950).

Consider `COC(=O)N[C@H](C(=O)N1CCC[C@H]1c1ncc(-c2ccc(C#Cc3ccc4nc([C@@H]5CCCN5C(=O)[C@@H](NC(=O)OC)C(C)C)[nH]c4c3)cc2)[nH]1)C(C)C` [Compound 90], for which the EC50 (as a rule, the concentration that produces a half-maximal response) in assay [1] is less than 1 nM. The “Bliss Volume (%) at 95% Confidence Intervals, Antagonism” value in assay [2] (setting [3]) is given as 0%; in assay [2] (setting [4]), 0%; in assay [2] (in combination with GSK625433) it was −1%; in assay [2] (in combination with ITMN-191) it was −9%; in assay [2] (setting [5]) it was −14%; in assay [2] (in combination with R7128) it was 0%. In addition, in assay [2] (setting [6]), the “Bliss Volume (%) at 95% Confidence Intervals, Antagonism” value is on record as −1%. Further, the “Bliss Volume (%) at 95% Confidence Intervals, Synergy” value is listed as 48% in assay [2] (setting [3]); 0% in assay [2] (setting [4]); 12% in assay [2] (in combination with GSK625433); 2% in assay [2] (in combination with ITMN-191); 6% in assay [2] (setting [5]); 34% in assay [2] (in combination with R7128). Moreover, the “Bliss Volume (%) at 95% Confidence Intervals, Synergy” value in assay [2] (setting [6]) came to 0%. The “Result (combination effect)” value is reported as “Synergistic” in assay [2] (setting [3]); “Additive” in assay [2] (setting [4]); “Additive” in assay [2] (in combination with GSK625433); “Additive” in assay [2] (in combination with ITMN-191); “Additive” in assay [2] (setting [5]); “Synergistic” in assay [2] (in combination with R7128). Also, in assay [2] (setting [6]), the “Result (combination effect)” value was “Additive”. Also, the “Synergy Score” value is given as 48% in assay [2] (setting [3]); 0% in assay [2] (setting [4]); 11% in assay [2] (in combination with GSK625433); −7% in assay [2] (in combination with ITMN-191); −8% in assay [2] (setting [5]); 34% in assay [2] (in combination with R7128). Besides, the “Synergy Score” value in assay [2] (setting [6]) was −1%.

Regarding `COC(=O)N[C@H](C(=O)N1CC2(CC2)C[C@H]1c1nc(-c2ccc(C#Cc3ccc4[nH]c([C@@H]5CC6(CC6)CN5C(=O)[C@@H](NC(=O)OC)C(C)C)nc4c3)cc2)c[nH]1)C(C)C` [Compound 95], in assay [1], the EC50 is less than 1 nM. In addition, the “Bliss Volume (%) at 95% Confidence Intervals, Antagonism” value is reported as 0% in assay [2] (setting [3]); 0% in assay [2] (in combination with GSK625433); 0% in assay [2] (in combination with ITMN-191); −2% in assay [2] (setting [5]); 0% in assay [2] (in combination with R7128); 0% in assay [2] (setting [6]). Further, the “Bliss Volume (%) at 95% Confidence Intervals, Synergy” value is reported as 44% in assay [2] (setting [3]); 0% in assay [2] (in combination with GSK625433); 5% in assay [2] (in combination with ITMN-191); 0% in assay [2] (setting [5]); 28% in assay [2] (in combination with R7128); 5% in assay [2] (setting [6]). Also, the “Result (combination effect)” value in assay [2] (setting [3]) was “Synergistic”; in assay [2] (in combination with GSK625433), “Additive”; in assay [2] (in combination with ITMN-191) it was “Additive”; in assay [2] (setting [5]) it was “Additive”; in assay [2] (in combination with R7128) it was “Synergistic”; in assay [2] (setting [6]), “Additive”. The “Synergy Score” value in assay [2] (setting [3]) is on record as 44%; in assay [2] (in combination with GSK625433), 0%; in assay [2] (in combination with ITMN-191) it was 5%; in assay [2] (setting [5]), −2%; in assay [2] (in combination with R7128), 28%; in assay [2] (setting [6]) it was 5%.

`COC(=O)N[C@@H](C(=O)N1CCC[C@H]1c1nc(-c2ccc(CCc3ccc4[nH]c([C@@H]5CCCN5C(=O)[C@H](NC(=O)OC)c5ccccc5)nc4c3)cc2)n[nH]1)c1ccccc1` [Compound 40]: the 50% effective concentration (EC50) in assay [1] is less than 1 nM.

On to `COC(=O)N[C@H](C(=O)N1CCC[C@H]1c1ncc(-c2ccc([C@H]3C[C@@H]3c3ccc4nc([C@@H]5CCCN5C(=O)[C@@H](NC(=O)OC)C(C)C)[nH]c4c3)cc2)[nH]1)C(C)C` [Compound 72], for which the EC50 in assay [1] was less than 1 nM.

On to `COC(=O)N[C@H](C(=O)N1CCC[C@H]1c1ncc(-c2ccc(C#Cc3ccc4nc([C@@H]5C[C@H]6C[C@H]6N5C(=O)[C@@H](NC(=O)OC)C(C)C)[nH]c4c3)cc2)[nH]1)C(C)C` [Compound 107], for which the concentration for a half-maximal effect (EC50) in assay [1] was less than 1 nM.

Take `COC(=O)N[C@H](C(=O)N1CCC[C@H]1c1nc2cc(CCc3ccc(-c4ccc5[nH]c([C@@H]6CCCN6C(=O)[C@@H](NC(=O)OC)C(C)C)nc5c4)cc3)ccc2[nH]1)C(C)C` [Compound 34]: in assay [1], the concentration for a half-maximal effect (EC50) is less than 1 nM.

Turning to `CC[C@H](C)[C@H](NC(=O)OC)C(=O)N1CCC[C@H]1c1ncc(-c2ccc(C#Cc3ccc4nc([C@@H]5CCCN5C(=O)[C@@H](NC(=O)OC)[C@@H](C)CC)[nH]c4c3)cc2)[nH]1` [Compound 96], the EC50 in assay [1] is less than 1 nM.

As for `COCCOC(=O)N[C@H](C(=O)N1CCC[C@H]1c1nc2cc(-c3ccc(-c4ccc5[nH]c([C@@H]6CCCN6C(=O)[C@@H](NC(=O)OCCOC)C(C)C)nc5c4)cc3)ccc2[nH]1)C(C)C` [Compound 23], the 50% effective concentration (EC50) in assay [1] is greater than 10 nM.

For `COC(=O)N[C@@H](C(=O)N1CCC[C@H]1c1nc2ccc(CCc3ccc(-c4cnc([C@@H]5CCCN5C(=O)[C@H](NC(=O)OC)c5ccccc5)o4)cc3)cc2[nH]1)c1ccccc1` [Compound 104], the EC50 in assay [1] is less than 1 nM.

Take `COC(=O)N[C@H](C(=O)N1CCC[C@H]1c1nc(-c2ccc3cc(-c4cc5nc([C@@H]6CCCN6C(=O)[C@@H](NC(=O)OC)C(C)C)[nH]c5cc4Cl)ccc3c2)c[nH]1)C(C)C` [Compound 68]: the EC50 in assay [1] was less than 1 nM.

Consider `COC(=O)N[C@H](C(=O)N1CCC[C@H]1c1nc(-c2ccc(C#Cc3ccc4[nH]c([C@@H]5CCCN5C(=O)[C@H](NC(=O)OC)c5ccccc5)nc4c3)cc2)c[nH]1)C(C)C` [Compound 79], for which, in assay [1], the EC50 is less than 1 nM.

Consider `COC(=O)N[C@H](C(=O)N1CCC[C@H]1c1nc(C#Cc2ccc3cc(-c4ccc5[nH]c([C@@H]6CCCN6C(=O)[C@@H](NC(=O)OC)C(C)C)nc5c4)ccc3c2)c[nH]1)C(C)C` [Compound 57], for which the EC50 in assay [1] was less than 1 nM.

Take `COC(=O)N[C@H](C(=O)N1CCC[C@H]1c1nc(-c2ccc(C#Cc3cc(F)c4[nH]c([C@@H]5CCCN5C(=O)[C@@H](NC(=O)OC)C(C)C)nc4c3)cc2)c[nH]1)C(C)C` [Compound 64]: the EC50 in assay [1] was less than 1 nM.
